Reference: PMC9019904, “AD Informer Set: Chemical tools to facilitate Alzheimer's disease drug discovery” (Alzheimer's & Dementia : Translational Research & Clinical …, 2022)

Columns and labels:
[1] = tested on: BV2 (mouse microglia) cell line; test: pHrodo-myelin phagocytosis/cell viability high content imaging assay: phagocytosis signal; type: cell-based
Outline: (§1)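 Phagocytosis and cell viability were measured together by high content imaging about 22 hours after pHrodo-myelin addition. Three measurements were extracted from the images. Intensity increase and decrease were taken as early and later apoptosis, respectively.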

[2] = tested on: HMC3 (human microglia) cell line; test: as above; type: cell-based
Outline: as §1

[3] = tested on: BV2 (mouse microglia) cell line; test: pHrodo-myelin phagocytosis/cell viability high content imaging assay: viability (cell count, nuclear area, nuclear intensity); conditions: 48 hours treatment
Outline: (§2)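 BV2 mouse and HMC3 human microglia were treated with compounds at 10 μM for 48 h, with pHrodo-myelin present for the last 20 h. Viability was imaged as total cell count per well and mean nuclear intensity per cell. Values are means of duplicates, normalized to untreated wells as % control.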

[4] = tested on: HMC3 (human microglia) cell line; test: as above; conditions: 48 hours treatment
Outline: as §2

[5] = BV2 cells, 10 uM compound, 48 hours treatment, pHrodo-myelin final 20 hours
[6] = HMC3 cells, 10 uM compound, 48 hours treatment, pHrodo-myelin final 20 hours
[7] = BV2, compound 10 uM, pHrodo-myelin
[8] = HMC3, compound 10 uM, pHrodo-myelin

c1ccc(CNc2nc(NCc3ccccc3)c3ccccc3n2)cc1 [UNC10302879A]
4. Phagocytosis (% control) [1, 5]: 0.00106 % control
4. Phagocytosis (% control) [2, 6]: 0.0516 % control
1. Cell count (% control) ([3]; BV2 cells, 10 uM compound): 27.3 % control
2. Nuclear Area (% Control) ([3]; BV2 cells, 10 uM compound): 94.3 % Control
3. Nuclear DNA Intensity (% control) ([3]; BV2 cells, 10 uM compound): 65.0 % control
1. Cell count (% control) ([4]; HMC3 cells, 10 uM compound): 28.2 % control
2. Nuclear Area (% Control) ([4]; HMC3 cells, 10 uM compound): 43.8 % Control
3. Nuclear DNA Intensity (% control) ([4]; HMC3 cells, 10 uM compound): 179.2 % control

Oc1c(F)cc(-c2cnccc2-c2ccc(N3CCOCC3)cc2)cc1F [UNC10302871A]
4. Phagocytosis (% control) [1, 7]: 174.2 % control
4. Phagocytosis (% control) [2, 8]: 84.7 % control
1. Cell count (% control) ([3]; BV2, compound 10 uM): 98.2 % control
2. Nuclear Area (% Control) ([3]; BV2, compound 10 uM): 107.6 % Control
3. Nuclear DNA Intensity (% control) ([3]; BV2, compound 10 uM): 98.3 % control
1. Cell count (% control) ([4]; HMC3, compound 10 uM): 123.1 % control
2. Nuclear Area (% Control) ([4]; HMC3, compound 10 uM): 101.3 % Control
3. Nuclear DNA Intensity (% control) ([4]; HMC3, compound 10 uM): 92.9 % control

COC(=O)C1=C(C)NC2=C(C(=O)c3ccccc32)C1c1ccccc1OCc1ccccc1F (stereo not shown) [UNC10303111A]
4. Phagocytosis (% control) [1, 7]: 307.3 % control
4. Phagocytosis (% control) [2, 8]: 61.6 % control
1. Cell count (% control) ([3]; BV2, compound 10 uM): 84.0 % control
2. Nuclear Area (% Control) ([3]; BV2, compound 10 uM): 101.6 % Control
3. Nuclear DNA Intensity (% control) ([3]; BV2, compound 10 uM): 106.1 % control
1. Cell count (% control) ([4]; HMC3, compound 10 uM): 166.8 % control
2. Nuclear Area (% Control) ([4]; HMC3, compound 10 uM): 93.9 % Control
3. Nuclear DNA Intensity (% control) ([4]; HMC3, compound 10 uM): 99.7 % control

CN(C)CCCOc1c(Br)cc(/C=C/C(=O)NCCCOc2c(Br)cc(CCN(C)C)cc2Br)cc1Br [UNC10302702A]
4. Phagocytosis (% control) [1, 7]: 0.0 % control
4. Phagocytosis (% control) [2, 8]: 0.00724 % control
1. Cell count (% control) ([3]; BV2, compound 10 uM): 26.8 % control
2. Nuclear Area (% Control) ([3]; BV2, compound 10 uM): 80.6 % Control
3. Nuclear DNA Intensity (% control) ([3]; BV2, compound 10 uM): 57.8 % control
1. Cell count (% control) ([4]; HMC3, compound 10 uM): 39.0 % control
2. Nuclear Area (% Control) ([4]; HMC3, compound 10 uM): 54.1 % Control
3. Nuclear DNA Intensity (% control) ([4]; HMC3, compound 10 uM): 166.0 % control

N#Cc1ccc(COC[C@H]2O[C@@H](n3c(NCc4ccc(Cl)c(Cl)c4)nc4c(N)ncnc43)[C@H](O)[C@@H]2O)cc1 [UNC10302853A]
4. Phagocytosis (% control) [1, 5]: 176.9 % control
4. Phagocytosis (% control) [2, 6]: 88.3 % control
1. Cell count (% control) ([3]; BV2 cells, 10 uM compound): 54.5 % control
2. Nuclear Area (% Control) ([3]; BV2 cells, 10 uM compound): 107.2 % Control
3. Nuclear DNA Intensity (% control) ([3]; BV2 cells, 10 uM compound): 111.0 % control
1. Cell count (% control) ([4]; HMC3 cells, 10 uM compound): 92.6 % control
2. Nuclear Area (% Control) ([4]; HMC3 cells, 10 uM compound): 103.1 % Control
3. Nuclear DNA Intensity (% control) ([4]; HMC3 cells, 10 uM compound): 98.3 % control

CCn1cc(C(=O)O)c(=O)c2c(N)c(F)c(NC3CCCCC3)cc21 [UNC10302843A]
4. Phagocytosis (% control) [1, 7]: 121.2 % control
4. Phagocytosis (% control) [2, 8]: 67.4 % control
1. Cell count (% control) ([3]; BV2, compound 10 uM): 99.6 % control
2. Nuclear Area (% Control) ([3]; BV2, compound 10 uM): 97.0 % Control
3. Nuclear DNA Intensity (% control) ([3]; BV2, compound 10 uM): 118.4 % control
1. Cell count (% control) ([4]; HMC3, compound 10 uM): 0.0 % control
2. Nuclear Area (% Control) ([4]; HMC3, compound 10 uM): 0.0 % Control
3. Nuclear DNA Intensity (% control) ([4]; HMC3, compound 10 uM): 0.0 % control

CC(C)(C)c1cnc(CSc2cnc(NC(=O)C3CCNCC3)s2)o1 [UNC10302585A]
4. Phagocytosis (% control) [1, 5]: 98.5 % control
4. Phagocytosis (% control) [2, 6]: 156.3 % control
1. Cell count (% control) ([3]; BV2 cells, 10 uM compound): 5.4 % control
2. Nuclear Area (% Control) ([3]; BV2 cells, 10 uM compound): 123.4 % Control
3. Nuclear DNA Intensity (% control) ([3]; BV2 cells, 10 uM compound): 85.3 % control
1. Cell count (% control) ([4]; HMC3 cells, 10 uM compound): 57.0 % control
2. Nuclear Area (% Control) ([4]; HMC3 cells, 10 uM compound): 118.9 % Control
3. Nuclear DNA Intensity (% control) ([4]; HMC3 cells, 10 uM compound): 102.8 % control

CN(C)CC1CCOC1(c1ccccc1)c1ccccc1.Cl (stereo not shown) [UNC10303096A]
4. Phagocytosis (% control) [1, 5]: 256.6 % control
4. Phagocytosis (% control) [2, 6]: 111.9 % control
1. Cell count (% control) ([3]; BV2 cells, 10 uM compound): 103.1 % control
2. Nuclear Area (% Control) ([3]; BV2 cells, 10 uM compound): 105.3 % Control
3. Nuclear DNA Intensity (% control) ([3]; BV2 cells, 10 uM compound): 104.2 % control
1. Cell count (% control) ([4]; HMC3 cells, 10 uM compound): 129.8 % control
2. Nuclear Area (% Control) ([4]; HMC3 cells, 10 uM compound): 100.5 % Control
3. Nuclear DNA Intensity (% control) ([4]; HMC3 cells, 10 uM compound): 94.9 % control
